From patent publication US9090632B2, “Bicyclic oxazole and thiazole compounds and their use as allosteric modulators of mGluR5 receptors” (Vanderbilt University, priority 2010, dated 2015)

Molecular target: human mGluR5 (Homo sapiens, UniProt P41594)
Test: Cell-based functional Ca2+ mobilization assay, potentiation of glutamate EC20 response (H10H cell-line)
Details: H10H cell-line expressing recombinant human mGluR5; for Emax / Emax (%): in presence of glutamate EC20, normalized to maximal glutamate response; for EC50 / pEC50: potentiation in presence of glutamate EC20
Protocol: Human embryonic kidney (HEK) cells transfected with rat mGluR5 were plated in clear bottom assay plates for assay in a Functional Drug Screening System (FDSS). In the alternative assay, HEK cells transfected with human mGluR5 were plated for assay in the FDSS. In some cases the HEK cells transfected with human mGluR5 are the H10H cell line. Alternatively, the HEK cells transfected with human mGluR5 are the H12H cell line. […] The cells were loaded with a Ca^2+-sensitive fluorescent dye (e.g., Fluo-4), and the plates were washed and placed in the FDSS instrument. After establishment of a fluorescence baseline for about three seconds, the compounds of the present invention were added to the cells, and the response in cells was measured. Five minutes later, an mGluR5 agonist (e.g., glutamate, 3,5-dihydroxyphenylglycine, or quisqualate) was added to the cells, and the response of the cells was measured. Potentiation of the agonist response of mGluR5 by the compounds in the present invention was observed as an increase in response to non-maximal concentrations of agonist (here, glutamate) in the presence of compound compared to the response to agonist in the absence of compound.
The above described assay can be operated in two modes. In the first mode, a range of concentrations of the present compounds were added to cells, followed by a single fixed concentration of agonist. If a compound acted as a potentiator, an EC50 value for potentiation and a maximum extent of potentiation by the compound at this concentration of agonist was determined by non-linear curve fitting. In the second mode, several fixed concentrations of the present compounds were added to various wells on a plate, followed by a range of concentrations of agonist for each concentration of present compound; the EC50 values for the agonist at each concentration of compound were determined by non-linear curve fitting. A decrease in the EC50 value of the agonist with increasing concentrations of the present compounds (a leftward shift of the agonist concentration-response curve) is an indication of the degree of mGluR5 potentiation at a given concentration of the present compound. An increase in the EC50 value of the agonist with increasing concentrations of the present compounds (a rightward shift of the agonist concentration-response curve) is an indication of the degree of mGluR5 antagonism at a given concentration of the present compound. The second mode also indicates whether the present compounds also affect the maximum response to mGluR5 to agonists.
Human mGluR5a cDNA in pCMV6-XL6 mammalian expression plasmid was purchased from OriGene Technologies, Inc. (catalogue number SC326357) and subcloned into pcDNA3.1(−). Human embryonic kidney (HEK) 293A cells were then transfected with human mGluR5a pcDNA3.1(−) using LipofectAmine 2000 (Invitrogen) and monoclones were selected and tested for functional response using a Ca^2+ mobilization assay. Monoclones were named for the species (“H” for human) plus the location on the plate (e.g. “10H”).
HEK cells transfected with the human mGluR5a receptor were plated at 15,000 cells/well in clear-bottomed poly-D-lysine-coated assay plates (BD Falcon) in glutamate-glutamine-free growth medium and incubated overnight at 37° C. and 5% CO2. The cell-line used to obtain the data reported herein was the H10H cell-line expressing the human mGluR5 receptor. Although the H10H cell-line was used to obtain the data shown herein, the H12H cell-line expressing the human mGluR5 receptor can also be used in these assays. The following day, the growth medium was removed and the cells were washed with assay buffer containing 1× Hank's balanced salt solution (Invitrogen, Carlsbad, Calif.), 20 mM HEPES, 2.5 mM probenecid, pH 7.4 and left with 20 μL of this reagent. Following this step, the cells were loaded with calcium indicator dye, fluo-4 AM, to a final concentration of 2 μM and incubated for 40-45 min at 37° C. […]

Chain of human mGluR5 (P41594 21-1180 isoform P41594-2 limits assumed): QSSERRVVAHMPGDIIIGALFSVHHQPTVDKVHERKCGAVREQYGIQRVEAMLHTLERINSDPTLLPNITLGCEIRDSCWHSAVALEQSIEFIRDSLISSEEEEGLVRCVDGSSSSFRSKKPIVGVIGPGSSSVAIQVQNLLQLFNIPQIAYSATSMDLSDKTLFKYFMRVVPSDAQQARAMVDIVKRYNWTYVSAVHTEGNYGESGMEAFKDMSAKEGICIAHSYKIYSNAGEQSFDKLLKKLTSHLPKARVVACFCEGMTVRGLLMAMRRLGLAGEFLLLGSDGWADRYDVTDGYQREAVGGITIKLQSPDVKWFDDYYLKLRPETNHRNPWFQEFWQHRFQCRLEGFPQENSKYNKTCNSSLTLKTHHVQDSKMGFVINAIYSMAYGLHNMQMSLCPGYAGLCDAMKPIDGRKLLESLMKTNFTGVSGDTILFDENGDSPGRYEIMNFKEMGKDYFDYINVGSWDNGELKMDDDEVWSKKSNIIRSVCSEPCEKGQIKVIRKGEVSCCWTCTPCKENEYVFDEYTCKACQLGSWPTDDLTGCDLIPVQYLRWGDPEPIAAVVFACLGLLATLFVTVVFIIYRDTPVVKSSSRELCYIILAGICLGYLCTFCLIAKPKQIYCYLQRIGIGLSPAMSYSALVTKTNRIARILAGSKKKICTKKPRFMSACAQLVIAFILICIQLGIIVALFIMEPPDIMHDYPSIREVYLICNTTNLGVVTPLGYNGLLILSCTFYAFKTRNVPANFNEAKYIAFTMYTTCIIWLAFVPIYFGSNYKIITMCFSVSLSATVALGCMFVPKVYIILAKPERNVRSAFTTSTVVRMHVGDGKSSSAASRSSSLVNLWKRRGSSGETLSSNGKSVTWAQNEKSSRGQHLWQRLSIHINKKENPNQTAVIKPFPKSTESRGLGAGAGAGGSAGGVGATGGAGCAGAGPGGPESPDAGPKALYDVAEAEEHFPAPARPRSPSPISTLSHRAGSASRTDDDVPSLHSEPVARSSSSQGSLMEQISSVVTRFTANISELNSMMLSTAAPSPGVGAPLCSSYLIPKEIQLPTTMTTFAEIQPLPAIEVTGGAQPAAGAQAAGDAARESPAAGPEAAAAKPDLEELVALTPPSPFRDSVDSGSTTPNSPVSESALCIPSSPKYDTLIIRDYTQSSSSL

SMILES	Emax [%]	EC50 [nM]	pEC50	Emax (%)
O=C(c1n[nH]c2ncccc12)N1CCc2nc(COc3ccccc3)oc2C1 [Example B147]	74	363	–	–
O=C(c1ccccc1F)N1CCc2nc(COc3ccccc3)oc2C1 [Example B9]	68	490	–	–
O=C(c1ccncc1)N1CCc2nc(COc3ccccc3)oc2C1 [Example B19]	69	4790	–	–
O=C(c1ccc(F)cc1)N1CCc2nc(COc3cnccn3)oc2C1 [Example B152]	36	> 10000	–	–
O=C(c1ccc(F)cc1)N1CCc2nc(COc3ccc(F)cc3)oc2C1 [Example B10]	75	–	6.18	–
O=C(Cc1ccc(F)cc1)N1CCc2nc(COc3ccccc3)oc2C1 [Example B134]	61	1200	–	–
O=C(c1cc(F)cc(F)c1)N1CCc2nc(COc3ccccc3)oc2C1 [Example B3, 5-[(3,5-difluorophenyl)carbonyl]-2-(phenoxymethyl)-4,5,6,7-tetrahydro[1,3]oxazolo[5,4-c]pyridine]	47	132	–	–
Cn1c(C(=O)N2CCc3nc(COc4ccccc4)oc3C2)cc2ccccc21 [Example B36, 5-[(1-methyl-1H-indol-2-yl)carbonyl]-2-(phenoxymethyl)-4,5,6,7-tetrahydro[1,3]oxazolo[5,4-c]pyridine]	56	501	–	–
O=C(c1c[nH]c2ccccc12)N1CCc2nc(COc3ccccc3)oc2C1 [Example B117]	–	–	6.60	69
O=C(c1ccc(F)cc1F)N1CCc2nc(COc3ccccc3)oc2C1 [Example B6]	92	501	–	–
O=C(c1ccc(Br)o1)N1CCc2nc(COc3ccccc3)oc2C1 [Example B106]	61	85.1	–	–
Cc1ccc(C(=O)N2CCc3nc(COc4ccccc4)oc3C2)cn1 [Example B132]	49	> 10000	–	–
O=C(c1ccc(F)cc1)N1CCc2nc(COc3ccccn3)oc2C1 [Example B68]	71	2400	–	–
O=C(c1ccc(F)cc1)N1CCc2nc(COc3ccncc3)oc2C1 [Example B73]	–	–	5.78	73
O=C(c1cc2ccccc2o1)N1CCc2nc(COc3ccccc3)oc2C1 [Example B120]	67	> 10000	–	–
O=C(c1cc[nH]n1)N1CCc2nc(COc3ccccc3)oc2C1 [Example B115]	–	–	<5	46
O=C1CCC(C(=O)N2CCc3nc(COc4ccccc4)oc3C2)N1 (stereo not shown) [Example B105]	–	–	<4.52	22
O=C(OCc1ccccc1)N1CCc2nc(COc3ccccc3)oc2C1 [Example B20]	–	–	5.82	72
O=C(c1ccc(Cl)o1)N1CCc2nc(COc3ccccc3)oc2C1 [Example B57]	–	–	7.14	57
O=C(C1CCc2cc(F)ccc2O1)N1CCc2nc(COc3ccccc3)oc2C1 (stereo not shown) [Example B82]	–	–	5.7	62
Cc1ccc(C(=O)N2CCc3nc(COc4ccccc4)oc3C2)o1 [Example B61]	52.5	302	–	–
O=C(CC(F)(F)F)N1CCc2nc(COc3ccccc3)oc2C1 [Example B116]	33	> 10000	–	–
O=C(c1cccnc1)N1CCc2nc(COc3ccccc3)oc2C1 [Example B18]	–	–	5.33	69
COCC(=O)N1CCc2nc(COc3ccccc3)oc2C1 [Example B138]	–	–	<4.52	27
O=C(c1c(F)cccc1F)N1CCc2nc(COc3ccccc3)oc2C1 [Example B16]	82	372	–	–

SMILES	Emax [%]	EC50 [nM]	pEC50	Emax (%)
O=C(c1cccc(F)c1)N1CCc2nc(COc3ccc(F)cc3)oc2C1 [Example B100]	60.5	245	–	–
O=C(c1ccc2nccnc2c1)N1CCc2nc(COc3ccccc3)oc2C1 [Example B91]	–	–	5.63	59
O=C(c1ccc(F)cc1)N1Cc2nc(COc3ccccc3)oc2C1 [Example B21]	–	–	6.05	81
O=C(c1ccc(F)cc1)N1CCc2oc(COc3ccccc3)nc2C1 [Example B22]	65	1620	–	–
Cc1ccnc(OCc2nc3c(o2)CN(C(=O)c2ccc(F)cc2)CC3)c1 [Example B33, 5-[(4-fluorophenyl)carbonyl]-2-{[(4-methylpyridin-2-yl)oxy]methyl}-4,5,6,7-tetrahydro[1,3]oxazolo[5,4-c]pyridine]	69	2000	–	–
Cc1cccc(OCc2nc3c(o2)CN(C(=O)c2ccc(F)cc2)CC3)c1 [Example B66]	63	1200	–	–
CC(Oc1ccccc1)C(=O)N1CCc2nc(COc3ccccc3)oc2C1 (stereo not shown) [Example B81]	63	1910	–	–
Cn1ccc(Cl)c1C(=O)N1CCc2nc(COc3ccccc3)oc2C1 [Example B113]	–	–	6.58	45
O=C(c1ccc(F)cc1)N1CCc2nc(COc3ccccc3)oc2CC1 [Example B4, 6-[(4-fluorophenyl)carbonyl]-2-(phenoxymethyl)-5,6,7,8-tetrahydro-4H-[1,3]oxazolo[4,5-d]azepine]	76	3390	–	–
O=C(c1ccc(F)cc1)N1CCc2nc(COc3cccc(F)c3)oc2C1 [Example B8, 5-(4-fluorobenzoyl)-2-[(3-fluorophenoxy)methyl]-4,5,6,7-tetrahydro-oxazolo[5,4-c]pyridine]	74	219	–	–
O=C(c1ccc(F)cc1)N1CCc2nc(COc3cccc(Cl)c3)oc2C1 [Example B69]	–	–	5.85	72
Cc1cccc(OCc2nc3c(o2)CN(C(=O)c2ccc(F)cc2)CC3)n1 [Example B133]	32	> 10000	–	–
CC(C)(C)[C@H](N)C(=O)N1CCc2nc(COc3ccccc3)oc2C1 [Example B54]	24	4170	–	–
O=C(c1n[nH]c2ccncc12)N1CCc2nc(COc3ccccc3)oc2C1 [Example B143]	68	–	5.85	–
O=C(c1c[nH]c2cccnc12)N1CCc2nc(COc3ccccc3)oc2C1 [Example B145]	50	> 10000	–	–
O=C(c1ncco1)N1CCc2nc(COc3ccccc3)oc2C1 [Example B60]	39.5	2000	–	–
Cc1cccnc1C(=O)N1CCc2nc(COc3ccccc3)oc2C1 [Example B42]	–	–	<5	58
O=C(c1cnccn1)N1CCc2nc(COc3ccccc3)oc2C1 [Example B148]	–	–	<5	43
O=C(c1n[nH]c2ccccc12)N1CCc2nc(COc3ccccc3)oc2C1 [Example B126]	72	389	–	–
O=C(c1nccs1)N1CCc2nc(COc3ccccc3)oc2C1 [Example B159]	–	–	<4.52	23
N#Cc1ccc(C(=O)N2CCc3nc(COc4ccccc4)oc3C2)cc1F [Example B90]	–	–	5.66	58
O=C(c1ncc(F)cc1F)N1CCc2nc(COc3ccccc3)oc2C1 [Example B38]	60	4070	–	–
O=C(c1ccc(F)cc1)N1CCc2nc(/C=C/c3ccccc3)oc2C1 [Example B14]	48	1550	–	–
O=C(c1cnn[nH]1)N1CCc2nc(COc3ccccc3)oc2C1 [Example B125]	–	–	<5	45
O=C(c1ccc(F)cc1F)N1CCc2nc(COc3ccccc3)sc2C1 [Example B12]	–	–	6.06	69
